Data published in ChEMBL document CHEMBL1140798, “Novel thiol-based TACE inhibitors. Part 2: Rational design, synthesis, and SAR of thiol-containing aryl sulfones” (Bioorg Med Chem Lett, 2008).

Columns and labels:
[1] = biological target: Disintegrin and metalloproteinase domain-containing protein 17 (Homo sapiens, UniProt P78536); assay: Inhibition of TACE
[2] = biological target: Neutrophil collagenase (Homo sapiens, UniProt P22894); assay: Inhibition of MMP8
[3] = biological target: Collagenase 3 (Homo sapiens, UniProt P45452); assay: Inhibition of MMP13
[4] = biological target: 72 kDa type IV collagenase (Homo sapiens, UniProt P08253); assay: Inhibition of MMP2
[5] = biological target: Matrix metalloproteinase-9 (Homo sapiens, UniProt P14780); assay: Inhibition of MMP9
[6] = biological target: T1, Matrilysin (Homo sapiens, UniProt P09237); assay: Inhibition of MMP7
T1 sequence (P09237 whole entry): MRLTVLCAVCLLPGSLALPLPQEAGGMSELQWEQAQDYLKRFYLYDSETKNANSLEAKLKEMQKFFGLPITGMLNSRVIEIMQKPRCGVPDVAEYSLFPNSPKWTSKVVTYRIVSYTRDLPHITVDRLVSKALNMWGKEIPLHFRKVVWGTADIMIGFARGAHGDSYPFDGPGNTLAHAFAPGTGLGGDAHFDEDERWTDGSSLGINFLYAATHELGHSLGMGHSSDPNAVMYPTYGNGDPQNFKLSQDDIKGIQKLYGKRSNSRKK

Chain of Disintegrin and metalloproteinase domain-containing protein 17 (P78536 whole entry, the tested form may be a part): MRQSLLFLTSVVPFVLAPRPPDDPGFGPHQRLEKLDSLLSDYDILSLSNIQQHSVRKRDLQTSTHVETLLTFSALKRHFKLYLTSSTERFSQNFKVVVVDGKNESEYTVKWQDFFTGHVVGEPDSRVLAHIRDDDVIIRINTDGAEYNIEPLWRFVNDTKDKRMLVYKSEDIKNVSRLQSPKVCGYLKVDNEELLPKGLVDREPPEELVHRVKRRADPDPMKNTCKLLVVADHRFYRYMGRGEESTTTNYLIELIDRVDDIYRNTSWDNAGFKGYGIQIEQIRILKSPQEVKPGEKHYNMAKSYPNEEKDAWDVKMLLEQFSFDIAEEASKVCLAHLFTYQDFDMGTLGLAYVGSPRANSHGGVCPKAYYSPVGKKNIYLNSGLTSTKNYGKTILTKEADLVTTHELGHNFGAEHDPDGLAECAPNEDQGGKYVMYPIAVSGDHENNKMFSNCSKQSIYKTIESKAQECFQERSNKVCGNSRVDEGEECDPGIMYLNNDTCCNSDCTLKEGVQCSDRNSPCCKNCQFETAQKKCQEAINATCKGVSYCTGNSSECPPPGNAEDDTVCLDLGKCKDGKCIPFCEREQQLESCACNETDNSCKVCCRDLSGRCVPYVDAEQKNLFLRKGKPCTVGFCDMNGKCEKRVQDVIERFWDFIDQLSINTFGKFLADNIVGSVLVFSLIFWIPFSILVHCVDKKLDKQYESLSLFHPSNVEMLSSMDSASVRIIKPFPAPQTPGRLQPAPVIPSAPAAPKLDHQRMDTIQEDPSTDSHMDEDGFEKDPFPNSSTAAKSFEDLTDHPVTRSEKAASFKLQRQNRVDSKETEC
Chain of Neutrophil collagenase (P22894 whole entry): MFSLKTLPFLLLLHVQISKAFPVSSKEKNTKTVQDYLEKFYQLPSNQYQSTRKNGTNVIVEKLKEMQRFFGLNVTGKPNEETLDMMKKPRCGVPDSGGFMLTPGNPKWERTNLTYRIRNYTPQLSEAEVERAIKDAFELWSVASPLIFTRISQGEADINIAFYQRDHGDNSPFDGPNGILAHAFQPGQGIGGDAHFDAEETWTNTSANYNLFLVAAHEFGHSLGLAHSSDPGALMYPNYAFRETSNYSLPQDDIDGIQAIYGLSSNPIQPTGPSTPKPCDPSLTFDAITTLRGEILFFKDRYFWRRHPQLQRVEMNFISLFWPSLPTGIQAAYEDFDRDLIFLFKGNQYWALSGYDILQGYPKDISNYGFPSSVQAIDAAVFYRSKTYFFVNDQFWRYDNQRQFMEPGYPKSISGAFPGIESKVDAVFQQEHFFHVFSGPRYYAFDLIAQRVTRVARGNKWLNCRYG
Chain of Matrix metalloproteinase-9 (P14780 whole entry): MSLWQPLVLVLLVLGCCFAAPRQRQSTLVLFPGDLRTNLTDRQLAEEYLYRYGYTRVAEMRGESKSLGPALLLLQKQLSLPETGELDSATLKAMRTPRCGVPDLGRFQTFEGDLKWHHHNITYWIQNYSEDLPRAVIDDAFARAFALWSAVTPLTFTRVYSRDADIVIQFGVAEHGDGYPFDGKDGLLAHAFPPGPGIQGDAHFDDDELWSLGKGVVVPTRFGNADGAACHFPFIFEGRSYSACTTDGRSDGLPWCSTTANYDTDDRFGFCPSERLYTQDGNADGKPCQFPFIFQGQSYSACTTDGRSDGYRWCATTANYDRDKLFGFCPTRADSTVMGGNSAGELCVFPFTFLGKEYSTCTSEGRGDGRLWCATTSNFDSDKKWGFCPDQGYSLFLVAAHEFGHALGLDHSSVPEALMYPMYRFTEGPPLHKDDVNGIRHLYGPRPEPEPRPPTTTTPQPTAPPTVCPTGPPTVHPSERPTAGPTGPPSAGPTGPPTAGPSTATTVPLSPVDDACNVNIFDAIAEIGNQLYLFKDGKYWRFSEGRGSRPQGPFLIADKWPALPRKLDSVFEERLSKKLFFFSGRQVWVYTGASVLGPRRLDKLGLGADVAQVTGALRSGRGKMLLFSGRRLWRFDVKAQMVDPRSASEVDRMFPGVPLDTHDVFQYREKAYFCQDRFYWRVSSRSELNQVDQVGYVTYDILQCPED
Chain of 72 kDa type IV collagenase (P08253 whole entry): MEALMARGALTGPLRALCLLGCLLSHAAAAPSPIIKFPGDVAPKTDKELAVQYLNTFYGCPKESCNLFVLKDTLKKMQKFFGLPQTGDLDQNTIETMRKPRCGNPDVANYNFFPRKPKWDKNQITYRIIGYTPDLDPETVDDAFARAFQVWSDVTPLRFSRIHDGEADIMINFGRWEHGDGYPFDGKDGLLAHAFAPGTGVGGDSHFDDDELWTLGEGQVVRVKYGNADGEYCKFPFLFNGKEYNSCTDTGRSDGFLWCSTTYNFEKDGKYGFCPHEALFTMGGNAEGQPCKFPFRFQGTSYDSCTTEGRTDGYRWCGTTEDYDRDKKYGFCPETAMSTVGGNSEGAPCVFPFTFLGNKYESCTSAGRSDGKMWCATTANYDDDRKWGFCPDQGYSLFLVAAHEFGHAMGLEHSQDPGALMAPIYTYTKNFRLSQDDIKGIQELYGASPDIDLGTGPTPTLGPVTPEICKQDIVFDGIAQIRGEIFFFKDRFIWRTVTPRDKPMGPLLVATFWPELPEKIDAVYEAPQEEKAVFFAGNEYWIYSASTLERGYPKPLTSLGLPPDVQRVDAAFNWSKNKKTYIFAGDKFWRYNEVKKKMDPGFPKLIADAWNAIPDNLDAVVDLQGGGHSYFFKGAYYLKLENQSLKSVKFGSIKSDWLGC

SMILES: CC#CCOc1ccc(S(=O)(=O)[C@@H]2CCC[C@@H](S)C2)cc1
- Ki [1]: 30 nM

SMILES: CC#CCNc1ccc(S(=O)(=O)CCS)cc1
- Ki [1]: 2 nM

SMILES: CC#CCNc1ccc(S(=O)(=O)CCCS)cc1
- Ki [1]: 4.5 nM

SMILES: CC#CCNc1ccc(S(=O)(=O)[C@@H]2CCC[C@@H](S)C2)cc1
- Ki [1]: 17 nM

SMILES: CC#CCOc1ccc(S(=O)(=O)CCCS)cc1
- Ki [2]: 2700 nM
- Ki [3]: 1700 nM
- Ki [4]: 1300 nM
- Ki [5]: 6300 nM
- Ki [6]: > 2500 nM

SMILES: CC#CCOc1ccc(S(=O)(=O)CCS)cc1
- Ki [1]: 8 nM

SMILES: CC#CCOc1ccc(S(=O)(=O)C2CCC(S)C2)cc1 (stereo unspecified)
- Ki [1]: 50 nM
